In US6927231B2, “Use of creatine for the amelioration of oxidative stress” (2458781 Canada Inc., priority 2001, dated 2005):
Values joined by “and” are separate entries in the source; they are usually repeats but may differ in a detail not shown here. Equal entries are not always repeated.

Assays:
[1] = Acid-soluble thiol concentration in the plasma during N-acetylcysteine ingestion; assay type: in vivo, human; conditions: healthy subject; NAC approximately 0.1-0.4 g per week, periods 1, 2, 5 and 6
Procedure: (§1) During the periods 1,2,5 and 6, the subject ingested small doses of N-acetylcysteine (NAC) (approximately 0.1-0.4 g per week) to adjust the acid-soluble thiol concentration in the plasma to an average value of about 15 μM, which corresponds approximately to the mean of healthy young subjects (see FIG. 1). In period 2, the subject ingested 3-4 times per week creatine at a dosis of approximately 3-4 g per week. In the period 4 and 6, the subject ingested creatine 6-7 times per week at a mean dose of approximately 6-8 g per week. Creatine was discontinued twice for one week each after the cystine level fell to a value of 40 and 41 μM, respectively. […] The P values illustrate the statistical significance for the differences between different treatment periods.

[2] = Plasma cystine concentration of a subject during creatine treatment periods; assay type: in vivo, human; conditions: healthy subject
Source text: FIG. 3 illustrates the results of a study that is described in more detail in example 1. The ordinate (c) describes the plasma cystine concentration in μMol. The columns 1-6 describe the mean plasma cystine concentrations during 6 successive treatment periods of a subject as described in example 1.
as §1

Structure (SMILES) | acid-soluble thiol concentration in the plasma, average value [1] | cystine level at which creatine was discontinued ([2]; creatine discontinued twice for one week each after the level fell to this value) | plasma cystine level ([2]; relatively small oral doses of creatine (approx. 3-8 g per week) during a total period of about 2.5 years, level corresponds to 20-35 year-old healthy subjects)
CC(=O)N[C@@H](CS)C(=O)O [N-acetylcysteine] | about 15 μM |  | 
CN(CC(=O)O)C(=N)N [creatine] |  | 40 µM and 41 µM | approximately 50 μ
